The source of these data is ChEMBL document CHEMBL1157533 (J Med Chem, 2008).

Series [1] can be described thus: Bioavailability in dog at 0.1 mg/kg, po by cassette assay. In kind it is ADME, organism-based, Canis lupus familiaris. Particulars: in vivo.
The target of series [2] is Beta-3 adrenergic receptor (Homo sapiens, UniProt P13945). Nature of the series: Agonist activity at human recombinant beta3 adrenergic receptor expressed in CHO cells assessed as cAMP accumulation by enzyme immuno assay. In kind it is functional, cell-based.
Series [3] can be described thus: Terminal half life in dog at 0.1 mg/kg, iv by cassette assay. In kind it is ADME, organism-based, Canis lupus familiaris. Further details: dose 0.1 mg/kg, route intravenous. As to conditions: in vivo, read-out: beta t1/2 (converted).
Series [4] has as its target Beta-1 adrenergic receptor (Homo sapiens, UniProt P08588). Nature of the series: Agonist activity at human recombinant beta-1 adrenergic receptor expressed in CHO cells assessed as cAMP accumulation by enzyme immuno assay. In kind it is functional, cell-based. A general note: Cyclic AMP is a second messenger, typically raised through Gs and lowered through Gi signalling.

A short description of series [5]: AUC (0 to 24 hrs) in dog at 0.1 mg/kg, po by cassette assay. The series is classed as ADME, organism-based, Canis lupus familiaris. More on the design: time < 24 hr, dose 0.1 mg/kg, route oral. Particulars: plasma.
The nature of series [6]: Total clearance in dog at 0.1 mg/kg, iv by cassette assay. Further details: dose 0.1 mg/kg, route intravenous. In kind it is ADME, organism-based, Canis lupus familiaris. Particulars: in vivo.
The nature of series [7]: Cmax in dog at 0.1 mg/kg, po by cassette assay. Further details: dose 0.1 mg/kg, route oral. As to conditions: in vivo. In kind it is ADME, organism-based, Canis lupus familiaris.
Series [8] in a line: Bioavailability in dog. As to conditions: in vivo. In kind it is ADME, organism-based, Canis lupus familiaris.
Series [9] can be described thus: Bioavailability in dog at 0.32 mg/kg, po. The series is classed as ADME, organism-based, Canis lupus familiaris. As to conditions: in vivo.
A short description of series [10]: Total clearance in dog at 0.32 mg/kg, iv. The series is classed as ADME, organism-based, Canis lupus familiaris. More on the design: dose 0.32 mg/kg, route intravenous. Particulars: in vivo.
The nature of series [11]: AUC (0 to 24 hrs) in monkey at 0.28 mg/kg, po by cassette assay. In kind it is ADME, organism-based, Macaca mulatta. Further details: time < 24 hr, dose 0.28 mg/kg, route oral. Particulars: rhesus monkey, plasma.
A short description of series [12]: Cmax in monkey at 0.28 mg/kg, po by cassette assay. In kind it is ADME, organism-based, Macaca mulatta. More on the design: dose 0.28 mg/kg, route oral. As to conditions: rhesus monkey, in vivo.
Series [13] is described as follows: Protein binding in Beagle dog serum. The series is classed as ADME, cell-free, Canis lupus familiaris. Particulars: read-out: PPB (converted).
A short description of series [14]: Terminal half life in monkey plasma at 0.28 mg/kg, iv by cassette assay. In kind it is ADME, organism-based, Macaca mulatta. More on the design: dose 0.28 mg/kg, route intravenous. Particulars: rhesus monkey, read-out: beta t1/2 (converted).
Series [15] can be described thus: Total clearance in rat at 0.26 mg/kg, iv by cassette assay. The series is classed as ADME, organism-based. More on the design: dose 0.26 mg/kg, route intravenous. As to conditions: in vivo.
Series [16] can be described thus: AUC (0 to 24 hrs) in rat at 0.26 mg/kg, po by cassette assay. The series is classed as ADME, organism-based. Further details: time < 24 hr, dose 0.26 mg/kg, route oral. As to conditions: plasma.
Series [17] deals with Beta-3 adrenergic receptor (Canis lupus familiaris, UniProt O02662). Description: Agonist activity at dog recombinant beta3 adrenergic receptor expressed in CHO cells assessed as cAMP accumulation by enzyme immuno assay. The series is classed as functional, cell-based.
Series [18] is described as follows: Bioavailability in monkey at 0.28 mg/kg, po by cassette assay. In kind it is ADME, organism-based, Macaca mulatta. As to conditions: rhesus monkey, in vivo.
Series [19] in a line: Total clearance in monkey at 0.28 mg/kg, iv by cassette assay. In kind it is ADME, organism-based, Macaca mulatta. Further details: dose 0.28 mg/kg, route intravenous. Particulars: rhesus monkey, in vivo.
Series [20] addresses Beta-2 adrenergic receptor (Homo sapiens, UniProt P07550). Description: Agonist activity at human recombinant beta2 adrenergic receptor expressed in CHO cells assessed as cAMP accumulation by enzyme immuno assay. In kind it is functional, cell-based.
Series [21] is described as follows: AUC (0 to 24 hrs) in dog at 0.32 mg/kg, po. In kind it is ADME, organism-based, Canis lupus familiaris. As to conditions: plasma. Further details: time < 24 hr, dose 0.32 mg/kg, route oral.
Series [22] in a line: Cmax in rat at 0.26 mg/kg, po by cassette assay. The series is classed as ADME, organism-based. Further details: dose 0.26 mg/kg, route oral. Particulars: in vivo.
A short description of series [23]: Bioavailability in rat at 0.26 mg/kg, po by cassette assay. As to conditions: in vivo. In kind it is ADME, organism-based.
Series [24] is described as follows: Terminal half life in rat plasma at 0.26 mg/kg, iv by cassette assay. The series is classed as ADME, organism-based. More on the design: dose 0.26 mg/kg, route intravenous. As to conditions: read-out: beta t1/2 (converted).
A short description of series [25]: Cmax in dog at 0.32 mg/kg, po. In kind it is ADME, organism-based, Canis lupus familiaris. Further details: dose 0.32 mg/kg, route oral. As to conditions: in vivo.

Where only a bound is given, the exact number is not on record here.

Sequence of Beta-3 adrenergic receptor (Homo sapiens, UniProt P13945) (P13945 whole entry): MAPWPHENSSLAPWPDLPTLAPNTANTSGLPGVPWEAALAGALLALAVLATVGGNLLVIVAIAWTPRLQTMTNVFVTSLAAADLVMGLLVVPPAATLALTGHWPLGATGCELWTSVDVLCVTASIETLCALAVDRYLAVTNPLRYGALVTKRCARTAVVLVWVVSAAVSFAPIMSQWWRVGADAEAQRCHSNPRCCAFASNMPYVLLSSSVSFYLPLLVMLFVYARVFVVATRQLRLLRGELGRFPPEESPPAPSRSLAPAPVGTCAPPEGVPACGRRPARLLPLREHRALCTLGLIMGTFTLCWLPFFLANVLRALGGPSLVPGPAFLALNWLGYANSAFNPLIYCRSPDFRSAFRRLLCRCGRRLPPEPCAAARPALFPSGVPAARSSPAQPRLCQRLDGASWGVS
Sequence of Beta-1 adrenergic receptor (P08588 whole entry): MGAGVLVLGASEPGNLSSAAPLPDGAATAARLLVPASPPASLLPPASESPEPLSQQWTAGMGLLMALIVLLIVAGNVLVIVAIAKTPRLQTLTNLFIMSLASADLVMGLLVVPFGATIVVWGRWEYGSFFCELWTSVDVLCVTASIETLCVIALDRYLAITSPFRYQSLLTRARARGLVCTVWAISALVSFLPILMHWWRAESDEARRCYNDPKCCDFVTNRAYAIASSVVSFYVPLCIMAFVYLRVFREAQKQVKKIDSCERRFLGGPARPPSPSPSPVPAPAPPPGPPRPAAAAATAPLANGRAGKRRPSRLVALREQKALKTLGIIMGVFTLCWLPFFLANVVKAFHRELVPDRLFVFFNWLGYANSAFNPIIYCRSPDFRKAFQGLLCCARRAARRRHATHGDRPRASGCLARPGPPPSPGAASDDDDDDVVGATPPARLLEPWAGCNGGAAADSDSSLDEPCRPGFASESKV
Sequence of Beta-2 adrenergic receptor (P07550 whole entry): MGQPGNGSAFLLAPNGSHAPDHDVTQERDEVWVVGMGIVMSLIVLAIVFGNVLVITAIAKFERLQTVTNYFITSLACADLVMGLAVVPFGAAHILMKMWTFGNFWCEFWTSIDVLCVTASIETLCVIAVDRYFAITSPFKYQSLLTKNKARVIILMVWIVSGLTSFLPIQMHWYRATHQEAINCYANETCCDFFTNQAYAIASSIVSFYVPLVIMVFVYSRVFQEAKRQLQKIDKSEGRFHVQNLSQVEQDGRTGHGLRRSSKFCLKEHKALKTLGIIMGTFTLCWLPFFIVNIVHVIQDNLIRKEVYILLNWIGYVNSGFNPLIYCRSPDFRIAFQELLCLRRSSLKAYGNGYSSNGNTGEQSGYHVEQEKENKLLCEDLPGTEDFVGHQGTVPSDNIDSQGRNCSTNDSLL
Sequence of Beta-3 adrenergic receptor (Canis lupus familiaris, UniProt O02662) (O02662 whole entry): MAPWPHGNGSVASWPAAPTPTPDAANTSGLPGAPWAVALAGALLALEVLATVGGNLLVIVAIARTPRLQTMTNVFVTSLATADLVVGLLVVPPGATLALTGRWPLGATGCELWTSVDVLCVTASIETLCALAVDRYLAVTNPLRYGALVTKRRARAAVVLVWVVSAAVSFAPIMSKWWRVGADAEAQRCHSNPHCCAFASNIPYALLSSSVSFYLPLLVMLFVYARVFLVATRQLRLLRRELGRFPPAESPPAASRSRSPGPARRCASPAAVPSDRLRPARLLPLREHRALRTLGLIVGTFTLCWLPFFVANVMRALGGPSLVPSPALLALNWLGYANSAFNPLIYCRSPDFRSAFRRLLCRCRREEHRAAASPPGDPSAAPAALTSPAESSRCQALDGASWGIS

What is called bioavailability is dose-corrected exposure relative to a reference, in per cent. As usually defined, the EC50 is the concentration giving half of the maximal effect. In general, AUC(0-t) refers to the area under the concentration-time curve up to a stated or last time point. The term clearance denotes the volume of plasma or blood freed of the substance per unit of time. What is called Cmax is the peak of the concentration-time curve. As for `CCCOc1cc(-c2ccc(OCCNC[C@H](O)c3cccc(Cl)c3)cc2)ccc1C(=O)O`, the bioavailability in series [1] is 69.7%. The EC50 in series [2] was 0.21 nM; in [4] it was 120 nM. In addition, in series [3], the half-life is 10.9 h. Moreover, the AUC(0-t) at 24 h in series [5] came to 420 ng·h/mL. The clearance in series [6] amounted to 2.9 mL/min/kg. For the same compound, the Cmax in [7] was 40.6 ng/mL.

For `COc1cc(-c2ccc(CCNC[C@H](O)c3cccc(Cl)c3)cc2)ccc1C(=O)O`, in series [8], the bioavailability came out at 58%.

Turning to `CC(C)Cc1cc(-c2ccc(OCCNC[C@H](O)c3ccc(N)nc3)cc2)ccc1C(=O)O`, the bioavailability in series [1] came out at 34.8%. Further, the EC50 came to 0.059 nM in [2] and 12 nM in series [4]. Moreover, the half-life in series [3] was 9.5 h. In [5], this compound came in with an AUC(0-t) at 24 h of 38.2 ng·h/mL. In [6], this compound registered a clearance of 14.2 mL/min/kg. The same compound had a Cmax in series [7] of 11.6 ng/mL.

As for `O=C(O)c1ccc(-c2ccc(CCNC[C@H](O)c3cccnc3)cc2)cc1OC1CCCCC1`, the figures for the bioavailability in [9], in [18] and in [23] were 60%, 10.7% and 82.5%, respectively. Besides, the values for the clearance in series [10], in [15] and in [19] were 47.7 mL/min/kg, 15.8 mL/min/kg and 3.4 mL/min/kg, respectively. In addition, the figures for the AUC(0-t) at 24 h in [11], in [16] and in series [21] were 153 ng·h/mL, 245 ng·h/mL and 58.1 ng·h/mL, respectively. Moreover, the Cmax in series [12] is 18.6 ng/mL; in series [22], 72.4 ng/mL; in series [25] it was 11.4 ng/mL. The fraction unbound in series [13] is 0.1. Besides, the EC50 is 0.26 nM in series [2], 1.3 nM in series [17], 480 nM in series [4] and over 10000 nM in series [20]. For the same compound, the half-life in series [14] is 10.3 h; in [24], 3.3 h.
